How the values were obtained:
[1] = test system: MNRR1-promoter driven luciferase reporter; assay: High throughput screen with MNRR1-promoter driven luciferase reporter cell lines; assay type: cell-based, human; conditions: list of 2400 FDA-approved drugs, small molecules and natural products
Description: Cell lines, culture, and Z′ determination: Stable cell line generation: HEK293 or MDA-MB-468 cells were transfected with pGL4-MNNR1-luciferase, selected with 0.5 μg/mL (for 293) or 1 μg/mL (for 468) puromycin for 2 weeks, and subcloned by limiting dilution. MDA-MB-468-MNRR1-luc and HEK293-MNRR1-luc cells from multiple clones (5000-7500 cells) were plated in 100 μL of complete medium overnight and treated with 10 μM of each compound from the library for 24 h. The medium was aspirated from each well to a volume of 25 μL, and 25 μL Bright Glo (Promega, Madison, WI) luciferase detection reagent was added to each well 10 min prior to luminescent determination with a FlexStation 3 Multimode Microplate Reader (Molecular Devices, San Jose, CA). […] The Z′ factor is a value used to identify strong candidates and can be calculated using a previously described method. […]
MicroSource Spectrum Collection: Despite the low Z′ values for MDA-MB-468-MNRR1-luc and HEK293-MNRR1-luc, pilot screens were performed with both using the MicroSource Spectrum Collection (Gaylordsville, CT). […] For HTS, cells were plated, treated, and measured for luciferase expression as described for clone identification; all HTS compounds were added to a final concentration of 10 μM and MNRR1-luciferase expression was measured after 24 h. […]

MELAS cybrid cells = assay: Mitophagy markers in MELAS cybrid cells (immunoblot); assay type: cell-based, human; conditions: 10 μM, 48 h
Description: FIGS. 7A-7E: MNRR1 activation by tizoxanide enhances mtDNA biogenesis and mitophagy to shift heteroplasmy in MELAS cells. FIG. 7A: Oxygen consumption measured from MELAS cybrid cells treated with vehicle (DMSO) or tizoxanide (10 μM) for 48 h (n=4 biological replicates, error bars represent SE). FIG. 7B: Haelll restriction enzyme digestion of a PCR-amplified fragment of mtDNA harboring the m.3243A>G mutation from DW7 cells treated with vehicle (DMSO) or tizoxanide (10 μM) for 144 h. […] FIG. 7C: Genes identified using qPCR of MELAS cybrid cells stably overexpressing EV or MNRR1. FIG. 7D: MtDNA levels are shown relative to nuclear DNA (nDNA) (GAPDH) (n=5 biological replicates, error bars represent SE). FIG. 7E: Equal amounts of MELAS cybrid cell lysates, treated with vehicle (DMSO) or tizoxanide (10 μM) for 48 h, were separated on an SDS-PAGE gel and probed for PGC1a, PINK1, LC3 A/B, MNRR1, and Tubulin. […]
Immunoblotting: Immunoblotting was performed as described previously. […] The clear supernatants were transferred to new tubes and quantified using the Bradford reagent with BSA as standard (BioRad, Hercules. CA). […] For detection after immunoblotting, the SuperSignal™ West Pico PLUS substrate (ThermoFisher, Waltham, MA) was used to generate chemiluminescence signal, which was detected with X-Ray film (RadTech, Vassar, MI).

Q: Which “outcome of screen for MNRR1 activators” value [1] does the source give for `CC(=O)Oc1ccccc1C(=O)Nc1ncc([N+](=O)[O-])s1` [nitazoxanide, Nitazoxanide] here?
A: identified as an MNRR1 activator

Q: For `O=C(Nc1ncc([N+](=O)[O-])s1)c1ccccc1O` [tizoxanide, Tizoxanide], which “mitophagy (PINK1, LC3A, LC3B, pSer-65 ubiquitin)” value (MELAS cybrid cells) is on record?
A: Increased mitophagy

From patent US20250241901A1, “ACTIVATION OF MNRR1 / CHCHD2 AS A THERAPEUTIC TARGET FOR MITOCHONDRIA ASSOCIATED DISORDERS” (Wayne State University, priority 2024, published 2025)
